Assay results from patent US8247211B2, “Glycopeptide antibiotics” (American Cyanamid Company, priority 2001, dated 2012).
Converted amounts (≈) assume the structure as drawn.

Columns and labels:
Experiment in all cases: In vitro antibacterial evaluation: minimum inhibitory concentration (MIC), broth dilution method
Type in all cases: cell-based
[1] = tested on: Enterococcus sp.; settings: 18 hours at 35° C.
Method in brief: (§1)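 Values are minimum inhibitory concentrations, meaning the smallest antibiotic concentration that stops growth of the organism. They come from broth dilution in Muller-Hinton II […] per NCCLS guidance (M7-A2), using 5×10^5 CFU/mL and concentrations from 64 to 0.06 μg/mL.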

[2] = tested on: Staphylococcus sp.
Method in brief: as §1

[3] = tested on: Streptococcus sp.; settings: 18 hours at 35° C.
Method in brief: as §1

[4] = tested on: Escherichia coli; settings: Escherichia coli (GC 4560); 18 hours at 35° C.
Method in brief: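 Following NCCLS approved standard M7-A2, compounds are serially diluted from 64 to 0.06 μg/mL in Muller-Hinton II […] and inoculated at 5×10^5 CFU/mL; the MIC is the minimum concentration at which growth is inhibited.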

[5] = broth dilution, inoculum 5×10^5 CFU/mL

MIC Enterococcus avium (GC 4558) ([1]; Enterococcus avium (GC 4558)): 16 mg/L (≈ 11.5 µM)
MIC Enterococcus faecalis (ATCC 29212) ([1]; Enterococcus faecalis (ATCC 29212)): 16 mg/L (≈ 11.5 µM)
MIC Enterococcus faecalis (GC 2242) ([1]; Enterococcus faecalis (GC 2242)): 16 mg/L (≈ 11.5 µM)
MIC Enterococcus faecalis (GC 2691) ([1]; Enterococcus faecalis (GC 2691)): 16 mg/L (≈ 11.5 µM)
MIC Enterococcus faecalis (GC 3059) ([1]; Enterococcus faecalis (GC 3059)): 16 mg/L (≈ 11.5 µM)
MIC Enterococcus faecalis (GC 4552) ([1]; Enterococcus faecalis (GC 4552)): 16 mg/L (≈ 11.5 µM)
MIC Enterococcus faecalis (GC 4553) ([1]; Enterococcus faecalis (GC 4553)): 16 mg/L (≈ 11.5 µM)
MIC Enterococcus faecalis (GC 4554) ([1]; Enterococcus faecalis (GC 4554)): 16 mg/L (≈ 11.5 µM)
MIC Enterococcus faecalis (GC 6189) ([1]; Enterococcus faecalis (GC 6189)): 16 mg/L (≈ 11.5 µM)
MIC Enterococcus faecium (GC 2243) ([1]; Enterococcus faecium (GC 2243)): 16 mg/L (≈ 11.5 µM)
MIC Enterococcus faecium (GC 4556) ([1]; Enterococcus faecium (GC 4556)): 16 mg/L (≈ 11.5 µM)
MIC Enterococcus faecium (GC 4557) ([1]; Enterococcus faecium (GC 4557)): 8 mg/L (≈ 5.76 µM)
MIC Enterococcus avium (GC 4558) [1, 5]: 16 mg/L (≈ 11.5 µM)
MIC Enterococcus faecalis (ATCC 29212) [1, 5]: 16 mg/L (≈ 11.5 µM)
MIC Enterococcus faecalis (GC 2242) [1, 5]: 16 mg/L (≈ 11.5 µM)
MIC Enterococcus faecalis (GC 2691) [1, 5]: 16 mg/L (≈ 11.5 µM)
MIC Enterococcus faecalis (GC 3059) [1, 5]: 16 mg/L (≈ 11.5 µM)
MIC Enterococcus faecalis (GC 4552) [1, 5]: 16 mg/L (≈ 11.5 µM)
MIC Enterococcus faecalis (GC 4553) [1, 5]: 16 mg/L (≈ 11.5 µM)
MIC Enterococcus faecalis (GC 4554) [1, 5]: 16 mg/L (≈ 11.5 µM)
MIC Enterococcus faecalis (GC 6189) [1, 5]: 16 mg/L (≈ 11.5 µM)
MIC Enterococcus faecium (GC 2243) [1, 5]: 16 mg/L (≈ 11.5 µM)
MIC Enterococcus faecium (GC 4556) [1, 5]: 16 mg/L (≈ 11.5 µM)
MIC Enterococcus faecium (GC 4557) [1, 5]: 8 mg/L (≈ 5.76 µM)
MIC Staphylococcus aureus (ATCC 29213) ([2]; strain ATCC 29213): 4 mg/L (≈ 2.88 µM)
MIC Staphylococcus aureus (GC 1131) ([2]; strain GC 1131): 8 mg/L (≈ 5.76 µM)
MIC Staphylococcus aureus (GC 3051) ([2]; strain GC 3051): 4 mg/L (≈ 2.88 µM)
MIC Staphylococcus aureus (GC 3053) ([2]; strain GC 3053): 8 mg/L (≈ 5.76 µM)
MIC Staphylococcus aureus (GC 4541) ([2]; strain GC 4541): 4 mg/L (≈ 2.88 µM)
MIC Staphylococcus aureus (GC 4542) ([2]; strain GC 4542): 4 mg/L (≈ 2.88 µM)
MIC Staphylococcus aureus-SMITH (GC 4543) ([2]; strain GC 4543): 4 mg/L (≈ 2.88 µM)
MIC Staphylococcus aureus (GC 4544) ([2]; strain GC 4544): 8 mg/L (≈ 5.76 µM)
MIC Staphylococcus aureus (GC 4545) ([2]; strain GC 4545): 4 mg/L (≈ 2.88 µM)
MIC Coagulase Negative Staphylococcus (GC 4547) ([2]; strain GC 4547): 4 mg/L (≈ 2.88 µM)
MIC Coagulase Negative Staphylococcus (GC 4548) ([2]; strain GC 4548): 4 mg/L (≈ 2.88 µM)
MIC Coagulase Negative Staphylococcus (GC 4549) ([2]; strain GC 4549): 2 mg/L (≈ 1.44 µM)
MIC Coagulase Negative Staphylococcus (GC 4551) ([2]; strain GC 4551): 4 mg/L (≈ 2.88 µM)
MIC Streptococcus agalactiae (GC 4564) ([3]; Streptococcus agalactiae (GC 4564)): 1 mg/L (≈ 0.72 µM)
MIC Streptococcus pneumoniae (ATCC 6301) ([3]; Streptococcus pneumoniae (ATCC 6301)): 0.5 mg/L (≈ 0.36 µM)
MIC Streptococcus pneumoniae (GC 1894) ([3]; Streptococcus pneumoniae (GC 1894)): 0.25 mg/L (≈ 0.18 µM)
MIC Streptococcus pneumoniae (GC 4565) ([3]; Streptococcus pneumoniae (GC 4565)): 0.5 mg/L (≈ 0.36 µM)
MIC Streptococcus pyogenes (GC 4563) ([3]; Streptococcus pyogenes (GC 4563)): 0.5 mg/L (≈ 0.36 µM)
MIC Streptococcus agalactiae (GC 4564) [3, 5]: 1 mg/L (≈ 0.72 µM)
MIC Streptococcus pneumoniae (ATCC 6301) [3, 5]: 0.5 mg/L (≈ 0.36 µM)
MIC Streptococcus pneumoniae (GC 1894) [3, 5]: 0.25 mg/L (≈ 0.18 µM)
MIC Streptococcus pneumoniae (GC 4565) [3, 5]: 0.5 mg/L (≈ 0.36 µM)
MIC Streptococcus pyogenes (GC 4563) [3, 5]: 0.5 mg/L (≈ 0.36 µM)
MIC Escherichia coli (GC 4560) [4]: 4 mg/L (≈ 2.88 µM)
Structure (SMILES): CC(c1ccccc1)C1NC(=O)CNC(=O)C(CO)NC(=O)C(C(O)C2CNC(=N)N2C2OC(CO)C(O)C(O)C2O)NC(=O)C(C(O)C2CNC(=N)N2)NC(=O)C(Cc2ccc(OC3OC(CO)C(OC4OC5COC6(CCCCC6C)OC5C(O)C4O)C(O)C3O)cc2)NC1=O (stereo not drawn) [Example 204, Cyclo[glycyl-β-methylphenylalanyl-O-[4-O-[4,6-O-(2-methylcyclohexylidene)hexopyranosyl]hexopyranosyl]tyrosyl-3-(2-iminoimidazolidin-4-yl)seryl-3-(3-hexopyranosyl-2-iminoimidazolidin-4-yl)serylseryl]]
MIC Staphylococcus haemolyticus (GC 4546) ([2]; strain GC 4546): 2 mg/L (≈ 1.44 µM)
